Test: Thermodynamic solubility of regorafenib monohydrate in different solvents
Format: physicochemical
Conditions: thermodynamic from solid
Description: Regorafenib monohydrate has a limited solubility profile.

solubility (aqueous with cosolvent or surfactant or cyclodextrin, solvent HPβ-Cyclodextrin/water (10:90)): < 100 µg/mL
solubility (oil or lipid, solvent Light liquid paraffin): < 100 µg/mL
solubility (solvent Water): < 100 µg/mL
SMILES: CNC(=O)c1cc(Oc2ccc(NC(=O)Nc3ccc(Cl)c(C(F)(F)F)c3)c(F)c2)ccn1 [regorafenib monohydrate, 4-{4-[({[4-chloro-3-(trifluoromethyl)phenyl]amino}carbonyl)amino]-3-fluorophenoxy}-N-methylpyridine-2-carboxamide]

— patent publication US20140179745A1, “TOPICAL OPHTHALMOLOGICAL PHARMACEUTICAL COMPOSITION CONTAINING REGORAFENIB” (Bayer Healthcare LLC, priority 2012, published 2014)
